Measured values taken from patent US9101640B2, “Use of Danshensu, Notoginsenoside R1 or their combination in preparation of medicaments for preventing and treating diseases caused by microcirculation disorder” (Tasly Pharmaceutical Group Co., Ltd., priority 2009, dated 2015).
Entries after “also recorded” stand apart in the source; their conditions may differ.

Assays:
Format in all cases: in vivo
[1] = test system: leukocytes rolling along the mesenteric venular walls; assay: Counting of leukocytes rolling along inner walls of venules after I/R; details: rat mesenteric I/R
Description: (§1) The rats were anesthetized by intraperitoneal injection of pentobarbital sodium (30 mg/kg body weight (BW)). PE venous cannulas (#3) were cannulated into the right jugular of the rats and detained. The abdomen of each rat was incised in a length of 20-30 mm along the midline. The ileum near the ileocecal junctions was gently taken out and unfolded onto the object stage mounted with glass slides. The unfolded mesenteries were continuously dripped with Krebs-Ringer buffering solution at 37° C. The microcirculatory dynamics of the mesenteries was observed under white light (12V, 100 W) using an inverted biomicroscope (Diaphot TMD-2S, Nikon, Tokyo) placed in the thermostat at 37° C. Observation sites were selected under 20× object lens, and a video recording system with a time-displaying function was used to record what had been observed on S-VHS tape and preserved. […] Normal saline was administrated at 20 min before ischemia until the end of the observation by continuously intravenous drip via jugular at a dosage of 5 mg/kg/h. PE cannulas were used to ligate non-circulatory mesenteric arteries and veins, so as to observe the arteries and veins for 10 min, and then the ligation was lifted. Time was adjusted to zero and the microcirculatory dynamics under the same visual field was continuously observed for 60 min.
(§2) DLA was administrated at 20 min before ischemia until the end of the observation by continuously intravenous drip via jugular at a dosage of 5 mg/kg/h.
(§3) R1 was administrated at 20 min before ischemia until the end of the observation by continuously intravenous drip via jugular at a dosage of 5 mg/kg/h.
(§4) The combination of DLA and R1 in a weight ratio of 4:1 was administrated at 20 min before ischemia until the end of the observation by continuously intravenous drip via jugular at a dosage of 5 mg/kg/h.
(§5) The combination of DLA and R1 in a weight ratio of 1:1 was administrated at 20 min before ischemia until the end of the observation by continuously intravenous drip via jugular at a dosage of 5 mg/kg/h. […]
(§6) Wherein, 6 rats in each group were taken out, these rats were used for observing the following aspects: the venular diameters; leukocytes rolling, adhesion, and emigration and DHR fluorescence intensities of the venular walls. […]
(§7) Microcirculatory dynamics was continuously recorded using an inverted biomicroscope […] recording system (CC-090, Flovel, Tokyo) and SIT fluorescent camera (C-2400-08, Hamamatsu Photonics, Hamamatsu).
The leukocytes roiling along the inner walls of the venules in a length of 200 μm within 10 s was counted from the replayed images at the following time points: before ischemia, and 1 min, 10 min, 20 min, 30 min, 40 min, 50 min and 60 min after the beginning of the reperfusion.

[2] = test system: leukocytes adhered to the mesenteric venules; assay: Counting of leukocytes adhered to venular walls after I/R; details: rat mesenteric I/R
Description: as §1, §2, §3, §4, §5, §6, §7
The leukocytes adhered to the venules which stayed at one site on the venular walls for at least 30 s the adherent leukocytes) was counted from the replayed images at the following time points: before ischemia, and 1 min, 10 min, 20 min, 30 min, 40 min, 50 min and 60 min after the beginning of the reperfusion. […]

[3] = test system: leukocytes emigrated from the mesenteric venules; assay: Counting of leukocytes emigrated from venules after I/R; details: rat mesenteric I/R
Description: as §1, §2, §3, §4, §5, §6, §7
The number of the leukocytes emigrated from the mesenteric venules was observed and counted from the replayed images at the following time points: before ischemia, and 1 min, 10 min, 20 min, 30 min, 40 min, 50 min and 60 min after the beginning of the reperfusion.

[4] = test system: plasma albumin leakage from the mesenteric venules; assay: FITC-labeled albumin leakage from venules after I/R; details: rat mesenteric I/R; for inhibition of the plasma albumin leakage from the venules after reperfusion: post-administration, 5 mg/kg/h continuous i.v. drip from 20 min after ischemia (DLA: 10 min after I/R); for inhibition of the plasma albumin leakage from the venules after I/R: pre-administration, 5 mg/kg/h continuous i.v. drip from 20 min before ischemia
Description: as §1, §2, §3, §4
The combination of DLA and R1 in a weight ratio of 1:1 was administrated at 20 min before ischemia until the end of the observation by continuously intravenous drip via jugular at a dosage of 5 mg/kg/h.
The combination of DLA and R1 in a weight ratio of 1:4 was administrated at 20 min before ischemia until the end of the observation by continuously intravenous drip via jugular at a dosage of 5 mg/kg/h.
DLA was administrated at 10 min after I/R until the end of the observation by continuously intravenous drip via jugular at a dosage of 5 mg/kg/h. […]
as §6
Microcirculatory dynamics was continuously recorded using an inverted biomicroscope […] recording system (CC-090, Flovel, Tokyo) and SIT fluorescent camera (C-2400-08, Hamamatsu Photonics, Hamamatsu). […]

[5] = test system: mast cells in the mesenteric interstitial substance; assay: Percentage of mast cells degranulation after I/R (toluidine blue); details: 60 min of reperfusion, rat
[6] = post-administration, 5 mg/kg/h continuous i.v. drip from 20 min after ischemia (DLA: 10 min after I/R)
[7] = pre-administration, 5 mg/kg/h continuous i.v. drip from 20 min before ischemia, 5 mg/kg
[8] = pre-administration, 5 mg/kg/h continuous i.v. drip from 20 min before ischemia

SMILES | inhibition of leukocytes rolling along the mesenteric venular walls caused by I/R [1, 6] | inhibition of leukocytes rolling along the mesenteric venular walls caused by I/R [1, 7] | inhibition of the increase in the number of leukocytes adhered to the mesenteric venules caused by I/R [2, 6] | inhibition of the increase in the number of leukocytes adhered to the mesenteric venules caused by I/R [2, 8] | inhibition of the emigration of leukocytes from the mesenteric venules after I/R [3, 6] | inhibition of the emigration of leukocytes from the mesenteric venules after I/R [3, 8] | inhibition of the plasma albumin leakage from the venules after reperfusion [4] | inhibition of the plasma albumin leakage from the venules after I/R [4] | inhibition of the increase in the percentage of mast cells degranulation caused by I/R [5, 6] | inhibition of the increase in the percentage of mast cells degranulation caused by I/R [5, 8] | inhibition of leukocytes rolling along the mesenteric venular walls caused by I/R ([1]; post-administration, 5 mg/kg/h continuous i.v. drip from 20 min after ischemia (DLA: 10 min after I/R), 5 mg/kg)
O=C(O)C(O)Cc1ccc(O)c(O)c1 (centres unmarked) [DLA, 3,4-dihydroxyphenyl lactic acid] | has the same effects as those of the pre-administration | can apparently suppress; also recorded: can inhibit | had significant inhibitory effects; also recorded: has the same effects as those of the pre-administration | had significant inhibitory effects; also recorded: can inhibit | had significant inhibitory effects; also recorded: has the same effects as those of the pre-administration | had significant inhibitory effects; also recorded: can inhibit | had significant inhibitory effects; also recorded: has the same effects as those of the pre-administration | had significant inhibitory effects; also recorded: can inhibit | had no significant inhibitory effects; also recorded: without the significant inhibition | can significantly inhibit | –
CC(C)=CCC[C@](C)(O[C@@H]1O[C@H](CO)[C@@H](O)[C@H](O)[C@H]1O)[C@H]1CC[C@]2(C)[C@@H]1[C@H](O)C[C@@H]1[C@@]3(C)CC[C@H](O)C(C)(C)[C@@H]3[C@@H](O[C@@H]3O[C@H](CO)[C@@H](O)[C@H](O)[C@H]3O[C@@H]3OC[C@@H](O)[C@H](O)[C@H]3O)C[C@]12C [R1, Notoginsenoside R1] | – | had no significant inhibitory effects; also recorded: have no significant inhibitory effects | had significant inhibitory effects; also recorded: can inhibit | had significant inhibitory effects; also recorded: can inhibit | had significant inhibitory effects; also recorded: can inhibit | had significant inhibitory effects; also recorded: can inhibit | had significant inhibitory effects; also recorded: can inhibit | had significant inhibitory effects; also recorded: can inhibit | can significantly inhibit | can significantly inhibit | had no significant inhibitory effects; also recorded: have no significant inhibitory effects
